# Results from patent US8541380B2, “C-aryl glucoside SGLT2 inhibitors and pharmaceutical compositions comprising same” (Green Cross Corporation, priority 2009, dated 2013).
# pIC50: −log10 of the molar value.
# Molecular target: human SGLT2 (Homo sapiens (Human), UniProt P31639)
# Assay: hSGLT2 inhibitory activity, sodium-dependent 14C-AMG glucose transport assay in CHO cells expressing hSGLT2
# Format: cell-based
# Conditions: 14C-AMG uptake, CHO cells expressing hSGLT2, 37° C. for 2 h
# Text: Human SGLT2 (hSGLT2) gene was amplified by PCR from cDNA-Human Adult Normal Tissue Kidney (Invitrogen, Carlsbad, Calif.). The hSGLT2 sequence was cloned into pcDNA3.1(+) for mammalian expression and were stably transfected into Chinese hamster ovary (CHO) cells. SGLT2-expressing clones were selected based on resistance to G418 antibiotic (Geneticin®, Invitrogen, Carlsbad, Calif.) and activity in the ^14C-α-methyl-D-glucopyranoside (^14C-AMG) uptake assay.
# For sodium-dependent glucose transport assay, cells expressing hSGLT2 were seeded into a 96-well culture plate at a density of 5×10^4 cells/well in RPMI medium 1640 containing 10% fetal bovine serum. The cells were used 1 day after plating. They were incubated in pretreatment buffer (10 mM HEPES, 5 mM Tris, 140 mM choline chloride, 2 mM KCl, 1 mM CaCl2, and 1 mM MgCl2, pH 7.4) at 37° C. for 10 min. They were then incubated in uptake buffer (10 mM HEPES, 5 mM Tris, 140 mM NaCl, 2 mM KCl, 1 mM CaCl2, 1 mM MgCl2, and 1 mM ^14C-nonlabeled AMG pH 7.4) containing ^14C-labeled (8 uM) and inhibitor or dimethyl sulfoxide (DMSO) vehicle at 37° C. for 2 h. Cells were washed twice with washing buffer (pretreatment buffer containing 10 mM AMG at room temperature) and then the radioactivity was measured using a liquid scintillation counter.
# Chain of human SGLT2 (P31639 whole entry): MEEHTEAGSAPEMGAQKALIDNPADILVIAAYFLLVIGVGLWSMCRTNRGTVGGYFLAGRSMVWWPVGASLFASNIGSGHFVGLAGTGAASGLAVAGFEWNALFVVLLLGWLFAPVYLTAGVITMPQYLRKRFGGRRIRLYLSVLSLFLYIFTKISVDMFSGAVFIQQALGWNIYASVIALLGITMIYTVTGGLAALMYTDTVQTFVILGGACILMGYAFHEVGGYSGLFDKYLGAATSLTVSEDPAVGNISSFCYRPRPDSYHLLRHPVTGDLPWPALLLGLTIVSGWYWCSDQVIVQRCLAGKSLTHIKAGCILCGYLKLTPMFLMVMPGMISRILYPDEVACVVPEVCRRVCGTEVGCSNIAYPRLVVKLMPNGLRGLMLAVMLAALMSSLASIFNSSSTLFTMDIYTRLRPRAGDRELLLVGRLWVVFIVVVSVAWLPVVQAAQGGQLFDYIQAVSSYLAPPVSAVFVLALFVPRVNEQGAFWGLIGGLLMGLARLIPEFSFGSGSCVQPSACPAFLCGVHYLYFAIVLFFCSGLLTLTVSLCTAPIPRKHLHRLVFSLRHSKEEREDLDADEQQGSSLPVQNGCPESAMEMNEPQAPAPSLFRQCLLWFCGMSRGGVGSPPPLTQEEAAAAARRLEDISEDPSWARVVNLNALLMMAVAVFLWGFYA
row,Structure (SMILES),pIC50
1,"CCCc1nnc(Cc2cc([C@@H]3O[C@H](CO)[C@@H](O)[C@H](O)[C@H]3O)ccc2Cl)s1 [Example 31, (2S,3R,4R,5S,6R)-2-(4-Chloro-3-((5-propyl-1,3,4-thiadiazol-2-yl)methyl)phenyl)-6-(hydroxymethyl)-tetrahydro-2H-pyran-3,4,5-triol]",6.67
2,"CCCCc1nnc(Cc2cc([C@@H]3O[C@H](CO)[C@@H](O)[C@H](O)[C@H]3O)ccc2Cl)s1 [Example 32, (2S,3R,4R,5S,6R)-2-(3-((5-Butyl-1,3,4-thiadiazol-2-yl)methyl)-4-chlorophenyl)-6-(hydroxymethyl)-tetrahydro-2H-pyran-3,4,5-triol]",6.42
3,"CCCCCc1nnc(Cc2cc([C@@H]3O[C@H](CO)[C@@H](O)[C@H](O)[C@H]3O)ccc2Cl)s1 [Example 33, (2S,3R,4R,5S,6R)-2-(4-Chloro-3-((5-pentyl-1,3,4-thiadiazol-2-yl)methyl)phenyl)-6-(hydroxymethyl)-tetrahydro-2H-pyran-3,4,5-triol]",6.45
4,"CCCCCCCc1nnc(Cc2cc([C@@H]3O[C@H](CO)[C@@H](O)[C@H](O)[C@H]3O)ccc2Cl)s1 [Example 34, (2S,3R,4R,5S,6R)-2-(4-Chloro-3-((5-heptyl-1,3,4-thiadiazol-2-yl)methyl)phenyl)-6-(hydroxymethyl)-tetrahydro-2H-pyran-3,4,5-triol]",6.91
5,"OC[C@H]1O[C@@H](c2ccc(Cl)c(Cc3nnc(CC(F)(F)F)s3)c2)[C@H](O)[C@@H](O)[C@@H]1O [Example 39, (2S,3R,4R,5S,6R)-2-(4-Chloro-3-((5-(2,2,2-trifluoroethyl)-1,3,4-thiadiazol-2-yl)methyl)phenyl)-6-(hydroxymethyl)tetrahydro-2H-pyran-3,4,5-triol]",6.12
6,"COC(=O)c1ccc(Cc2cc([C@@H]3O[C@H](CO)[C@@H](O)[C@H](O)[C@H]3O)ccc2Cl)nn1 [Example 49, Methyl 6-(2-chloro-5-((2S,3R,4R,5S,6R)-3,4,5-trihydroxy-6-(hydroxymethyl)-tetrahydro-2H-pyran-2-yl)benzyl)pyridazine-3-carboxylate]",6.70
7,"CCCCCOc1ccc(Cc2cc([C@@H]3O[C@H](CO)[C@@H](O)[C@H](O)[C@H]3O)ccc2Cl)nn1 [Example 54, (2S,3R,4R,5S,6R)-2-(4-Chloro-3-((6-(pentyloxy)pyridazin-3-yl)methyl)phenyl)-6-(hydroxymethyl)-tetrahydro-2H-pyran-3,4,5-triol]",7.77
8,"CCCCCCCCOc1ccc(Cc2cc([C@@H]3O[C@H](CO)[C@@H](O)[C@H](O)[C@H]3O)ccc2Cl)nn1 [Example 56, (2S,3R,4R,5S,6R)-2-(4-Chloro-3-((6-(octyloxy)pyridazin-3-yl)methyl)phenyl)-6-(hydroxymethyl)-tetrahydro-2H-pyran-3,4,5-triol]",7.30
9,"OC[C@H]1O[C@@H](c2ccc(Cl)c(Cc3ccc(OC4CCCCC4)nn3)c2)[C@H](O)[C@@H](O)[C@@H]1O [Example 59, (2S,3R,4R,5S,6R)-2-(4-Chloro-3-((6-(cyclohexyloxy)pyridazin-3-yl)methyl)phenyl)-6-(hydroxymethyl)-tetrahydro-2H-pyran-3,4,5-triol]",6.95
10,"OC[C@H]1O[C@@H](c2ccc(Cl)c(Cc3ccc(-c4ccc5c(c4)OCO5)nn3)c2)[C@H](O)[C@@H](O)[C@@H]1O [Example 67, (2S,3R,4R,5S,6R)-2-(3-((6-(Benzo[d][1,3]dioxol-5-yl)pyridazin-3-yl)methyl)-4-chlorophenyl)-6-(hydroxymethyl)-tetrahydro-2H-pyran-3,4,5-triol]",7.08
11,"Cc1ccc(Cc2cc([C@@H]3O[C@H](CO)[C@@H](O)[C@H](O)[C@H]3O)ccc2Cl)nn1 [Example 73, (2S,3R,4R,5S,6R)-2-(4-Chloro-3-((6-methylpyridazin-3-yl)methyl)phenyl)-6-(hydroxymethyl)-tetrahydro-2H-pyran-3,4,5-triol]",6.53
12,"CCCc1ccc(Cc2cc([C@@H]3O[C@H](CO)[C@@H](O)[C@H](O)[C@H]3O)ccc2Cl)nn1 [Example 74, (2S,3R,4R,5S,6R)-2-(4-Chloro-3-((6-propylpyridazin-3-yl)methyl)phenyl)-6-(hydroxymethyl)-tetrahydro-2H-pyran-3,4,5-triol]",6.63

# Now from value to compound:
row,pIC50,Structure (SMILES)
1,6.26,"CC(Cc1nnc(Cc2cc(C3O[C@H](CO)[C@@H](O)[C@H](O)[C@H]3O)ccc2Cl)s1)c1ccccc1 (stereo partly drawn) [Example 26, (3R,4R,5S,6R)-2-(4-Chloro-3-((5-(2-phenylpropyl)-1,3,4-thiadiazol-2-yl)methyl)phenyl)-6-(hydroxymethyl)-tetrahydro-2H-pyran-3,4,5-triol]"
2,6.14,"OC[C@H]1OC(c2ccc(Cl)c(Cc3nnc(/C=C/c4ccccc4)s3)c2)[C@H](O)[C@@H](O)[C@@H]1O (stereo partly drawn) [Example 27, (3R,4R,5S,6R,E)-2-(4-Chloro-3-((5-styryl-1,3,4-thiadiazol-2-yl)methyl)phenyl)-6-(hydroxymethyl)-tetrahydro-2H-pyran-3,4,5-triol]"
3,7.78,"OC[C@H]1O[C@@H](c2ccc(Cl)c(Cc3nnc(-c4ccccc4)s3)c2)[C@H](O)[C@@H](O)[C@@H]1O [Example 28, (2S,3R,4R,5S,6R)-2-(4-Chloro-3-((5-phenyl-1,3,4-thiadiazol-2-yl)methyl)phenyl)-6-(hydroxymethyl)-tetrahydro-2H-pyran-3,4,5-triol]"
4,6.90,"OC[C@H]1O[C@@H](c2ccc(Cl)c(Cc3nnc(-c4ccc(Cl)cc4)s3)c2)[C@H](O)[C@@H](O)[C@@H]1O [Example 29, (2S,3R,4R,5S,6R)-2-(4-chloro-3-((5-(4-Chlorophenyl)-1,3,4-thiadiazol-2-yl)methyl)phenyl)-6-(hydroxymethyl)-tetrahydro-2H-pyran-3,4,5-triol]"
5,6.60,"OC[C@H]1O[C@@H](c2ccc(Cl)c(Cc3nnc(-c4cc5ccccc5o4)s3)c2)[C@H](O)[C@@H](O)[C@@H]1O [Example 30, (2S,3R,4R,5S,6R)-2-(3-((5-(Benzofuran-2-yl)-1,3,4-thiadiazol-2-yl)methyl)-4-chlorophenyl)-6-(hydroxymethyl)-tetrahydro-2H-pyran-3,4,5-triol]"
6,7.97,"OC[C@H]1O[C@@H](c2ccc(Cl)c(Cc3nnc(-c4ccc(-c5ccccc5)o4)s3)c2)[C@H](O)[C@@H](O)[C@@H]1O [Example 37, (2S,3R,4R,5S,6R)-2-(4-Chloro-3-((5-(5-phenylfuran-2-yl)-1,3,4-thiadiazol-2-yl)methyl)phenyl)-6-(hydroxymethyl)-tetrahydro-2H-pyran-3,4,5-triol]"
7,6.81,"OC[C@H]1O[C@@H](c2ccc(Cl)c(Cc3nnc(C(F)(F)F)s3)c2)[C@H](O)[C@@H](O)[C@@H]1O [Example 38, (2S,3R,4R,5S,6R)-2-(4-Chloro-3-((5-(trifluoromethyl)-1,3,4-thiadiazol-2-yl)methyl)phenyl)-6-(hydroxymethyl)tetrahydro-2H-pyran-3,4,5-triol]"
8,7.96,"CSc1nnc(Cc2cc([C@@H]3O[C@H](CO)[C@@H](O)[C@H](O)[C@H]3O)ccc2Cl)s1 [Example 40, (2S,3R,4R,5S,6R)-2-(4-Chloro-3-((5-(methylthio)-1,3,4-thiadiazol-2-yl)methyl)phenyl)-6-(hydroxymethyl)-tetrahydro-2H-pyran-3,4,5-triol]"
9,6.84,"COc1nnc(Cc2cc([C@@H]3O[C@H](CO)[C@@H](O)[C@H](O)[C@H]3O)ccc2Cl)s1 [Example 41, (2S,3R,4R,5S,6R)-2-(4-Chloro-3-((5-methoxy-1,3,4-thiadiazol-2-yl)methyl)phenyl)-6-(hydroxymethyl)-tetrahydro-2H-pyran-3,4,5-triol]"
10,8.39,"OC[C@H]1O[C@@H](c2ccc(Cl)c(Cc3nnc(-c4cnccn4)s3)c2)[C@H](O)[C@@H](O)[C@@H]1O [Example 42, (2S,3R,4R,5S,6R)-2-(4-Chloro-3-((5-(pyrazin-2-yl)-1,3,4-thiadiazol-2-yl)methyl)phenyl)-6-(hydroxymethyl)-tetrahydro-2H-pyran-3,4,5-triol]"
11,6.72,"OC[C@H]1O[C@@H](c2ccc(Cl)c(Cc3nnc(-c4ccnnc4)s3)c2)[C@H](O)[C@@H](O)[C@@H]1O [Example 43, (2S,3R,4R,5S,6R)-2-(4-Chloro-3-((5-(pyridazin-4-yl)-1,3,4-thiadiazol-2-yl)methyl)phenyl)-6-(hydroxymethyl)-tetrahydro-2H-pyran-3,4,5-triol]"
12,6.20,"Cc1cccc(-c2nnc(Cc3cc([C@@H]4O[C@H](CO)[C@@H](O)[C@H](O)[C@H]4O)ccc3Cl)s2)n1 [Example 44, (2S,3R,4R,5S,6R)-2-(4-Chloro-3-((5-(6-methylpyridin-2-yl)-1,3,4-thiadiazol-2-yl)methyl)phenyl)-6-(hydroxymethyl)-tetrahydro-2H-pyran-3,4,5-triol]"
13,7.44,"Cc1cc(-c2nnc(Cc3cc([C@@H]4O[C@H](CO)[C@@H](O)[C@H](O)[C@H]4O)ccc3Cl)s2)ccn1 [Example 45, (2S,3R,4R,5S,6R)-2-(4-Chloro-3-((5-(2-methylpyridin-4-yl)-1,3,4-thiadiazol-2-yl)methyl)phenyl)-6-(hydroxymethyl)-tetrahydro-2H-pyran-3,4,5-triol]"
14,7.21,"OC[C@H]1O[C@@H](c2ccc(Cl)c(Cc3ccc(-c4ccoc4)nn3)c2)[C@H](O)[C@@H](O)[C@@H]1O [Example 63, (2S,3R,4R,5S,6R)-2-(4-Chloro-3-((6-(furan-3-yl)pyridazin-3-yl)methyl)phenyl)-6-(hydroxymethyl)-tetrahydro-2H-pyran-3,4,5-triol]"
